Experimental data published in publication PMC10221175.

Columns and labels:
[1] = test system: 5′-FAM-AT11-L0-TAMRA-3′ (DNA, G4) TGGTGGTGGTTGTTGGGTGGTGGTGGT; experiment: FRET melting; details: 65 mM KCl, 20 mM potassium phosphate, pH 6.9, 0.2 µM DNA
[2] = test system: 5′-Cy5-AT11-L0 (DNA, G4) TGGTGGTGGTTGTTGGGTGGTGGTGGT; experiment: fluorescence titration (Cy5 quenching), Hill model; details: 65 mM KCl, 20 mM potassium phosphate; pH 6.9; 1 µM DNA; apparent
[3] = test system: 5′-Cy5-AT11-L0 (DNA, G4) TGGTGGTGGTTGTTGGGTGGTGGTGGT; experiment: fluorescence titration (Cy5 quenching), two-site model; details: 65 mM KCl, 20 mM potassium phosphate; pH 6.9; 1 µM DNA; site 1 of 2; apparent
[4] = molecular target: T1, nucleolin RBD1,2 (NCL RBD1,2) (UniProt P19338 307-466); experiment: fluorescence titration (Cy5 quenching); ligand C8; two-site model, KD1; aptamer pre-annealed in 20 mM potassium phosphate pH 6.9, 65 mM KCl (95 C 10 min, ice 10 min); titration temperature not given in the material; details: protein: recombinant; label: 5'-Cy5; parallel G4, pre-folded in K+
[5] = molecular target: T1, nucleolin RBD1,2 (NCL RBD1,2); experiment: fluorescence titration (Cy5 quenching); no ligand; two-site model, KD1; aptamer pre-annealed in 20 mM potassium phosphate pH 6.9, 65 mM KCl (95 C 10 min, ice 10 min); titration temperature not given in the material; details: protein: recombinant; label: 5'-Cy5; parallel G4, pre-folded in K+
[6] = molecular target: T1, nucleolin RBD1,2 (NCL RBD1,2); experiment: fluorescence titration (Cy5 quenching); ligand PhenDC3; two-site model, KD1; aptamer pre-annealed in 20 mM potassium phosphate pH 6.9, 65 mM KCl (95 C 10 min, ice 10 min); titration temperature not given in the material; details: protein: recombinant; label: 5'-Cy5; parallel G4, pre-folded in K+

T1 sequence (P19338 307-466): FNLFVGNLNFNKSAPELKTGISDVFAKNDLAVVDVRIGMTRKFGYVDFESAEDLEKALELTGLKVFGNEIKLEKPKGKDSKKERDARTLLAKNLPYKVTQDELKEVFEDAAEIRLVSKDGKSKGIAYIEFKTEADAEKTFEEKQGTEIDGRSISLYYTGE

C[n+]1ccc(-c2c3nc(c(-c4cc[n+](C)cc4)c4ccc([nH]4)c(-c4cc[n+](C)cc4)c4nc(c(-c5cc[n+](C)cc5)c5ccc2[nH]5)C=C4)C=C3)cc1
ΔTm ([1]; 1 µM compound (5 eq)): 28 °C

CN(C)c1ccc2cc3ccc(N(C)C)cc3[n+](CCCCCCCCNC(=O)c3ccc(I)cc3)c2c1
ΔTm ([1]; 1 µM compound (5 eq)): 19.6 °C | KD [2]: 22.1 nM

CN(C)c1ccc(Nc2c3ccc(NC(=O)CCN4CCCC4)cc3nc3cc(NC(=O)CCN4CCCC4)ccc23)cc1
ΔTm ([1]; 1 µM compound (5 eq)): 20.3 °C

C[n+]1cc(NC(=O)c2ccc3ccc4ccc(C(=O)Nc5cc6ccccc6[n+](C)c5)nc4c3n2)cc2ccccc21
ΔTm ([1]; 1 µM compound (5 eq)): > 30 °C | KD1 [3]: 329 pM

NCCOc1cc(C(=O)Nc2cc(OCCN)c3ccccc3n2)nc(C(=O)Nc2cc(OCCN)c3ccccc3n2)c1
ΔTm ([1]; 1 µM compound (5 eq)): 26.9 °C

C[C@@H]1C[C@H]2[C@@H]3CCC4=CC(=O)C=C[C@]4(C)[C@@]3(F)[C@@H](O)C[C@]2(C)[C@@]1(O)C(=O)CO
ΔTm ([1]; 0.2 µM compound (1 eq)): 0.1 °C

B1: 5'-Cy5-AT11-L0 (structured_DNA)
DNA: TGGTGGTGGTTGTTGGGTGGTGGTGGT
Kd [4]: 0.024 nM | Kd [5]: 0.012 nM | Kd [6]: 0.02 nM
